Data reported in US6365632B1, “Treatment of orthostatic hypotension” (Knoll Pharmaceuticals Company, priority 1999, dated 2002).

How the values were obtained:
[1] = target: [3H] Noradenaline reuptake in rat brain tissue; experiment: in vitro [3H]noradrenaline reuptake inhibition in rat brain tissue; type: biochemical; details: means of ≧3 separate determinations
[2] = target: [3H] Dopamine reuptake in rat brain tissue; experiment: in vitro [3H]dopamine reuptake inhibition in rat brain tissue; type: biochemical; details: means of ≧3 separate determinations

Row | Structure (SMILES) | Ki [1] [nM] | Ki [2] [nM]
1 | COc1ccc(C(CN(C)C)C2(O)CCCCC2)cc1 (stereo not shown) [Venlafaxine] | 196 | 2590
2 | CC(NC(C)(C)C)C(=O)c1cccc(Cl)c1 (stereo not shown) [Bupropion] | 2590 | 409
